This note sets out measurements from ChEMBL document CHEMBL1287696, “N-substituted pyrrolidines and tetrahydrofurans as novel AMPAR positive modulators” (Bioorg Med Chem Lett, 2010).

The target in data set [1] is T1, Glutamate receptor 2 (Homo sapiens, UniProt P42262). Nature of the data set: Positive modulation of human GluA2 flip receptor by FLIPR assay.
Data set [2] has as its target T1, Glutamate receptor 2. In words: Positive modulation of human GluA2 flip receptor by FLIPR assay relative to cyclothiazide. The arrangement: concentration or dose not given beside the values.
Data set [3] has as its target Voltage-gated inwardly rectifying potassium channel KCNH2 (Homo sapiens, UniProt Q12809). Nature of the data set: Displacement of [3H]-dofetilide from human hERG.
The test system of data set [4] is Liver microsomes. Nature of the data set: Intrinsic clearance in human liver microsomes. Type of data set: ADME, Microsome. For orientation: Microsomes from liver hold many membrane-bound enzymes, among them those of drug oxidation.
Data set [5] can be described thus: Aqueous solubility of the compound. Type of data set: physicochemical. The conditions noted are these: aqueous medium.
Data set [6] in a line: Half life in rat. Type of data set: ADME, organism-based. The conditions noted are these: in vivo.
A short description of data set [7]: Ratio of drug level in brain to blood in rat.

T1 sequence (P42262 whole entry): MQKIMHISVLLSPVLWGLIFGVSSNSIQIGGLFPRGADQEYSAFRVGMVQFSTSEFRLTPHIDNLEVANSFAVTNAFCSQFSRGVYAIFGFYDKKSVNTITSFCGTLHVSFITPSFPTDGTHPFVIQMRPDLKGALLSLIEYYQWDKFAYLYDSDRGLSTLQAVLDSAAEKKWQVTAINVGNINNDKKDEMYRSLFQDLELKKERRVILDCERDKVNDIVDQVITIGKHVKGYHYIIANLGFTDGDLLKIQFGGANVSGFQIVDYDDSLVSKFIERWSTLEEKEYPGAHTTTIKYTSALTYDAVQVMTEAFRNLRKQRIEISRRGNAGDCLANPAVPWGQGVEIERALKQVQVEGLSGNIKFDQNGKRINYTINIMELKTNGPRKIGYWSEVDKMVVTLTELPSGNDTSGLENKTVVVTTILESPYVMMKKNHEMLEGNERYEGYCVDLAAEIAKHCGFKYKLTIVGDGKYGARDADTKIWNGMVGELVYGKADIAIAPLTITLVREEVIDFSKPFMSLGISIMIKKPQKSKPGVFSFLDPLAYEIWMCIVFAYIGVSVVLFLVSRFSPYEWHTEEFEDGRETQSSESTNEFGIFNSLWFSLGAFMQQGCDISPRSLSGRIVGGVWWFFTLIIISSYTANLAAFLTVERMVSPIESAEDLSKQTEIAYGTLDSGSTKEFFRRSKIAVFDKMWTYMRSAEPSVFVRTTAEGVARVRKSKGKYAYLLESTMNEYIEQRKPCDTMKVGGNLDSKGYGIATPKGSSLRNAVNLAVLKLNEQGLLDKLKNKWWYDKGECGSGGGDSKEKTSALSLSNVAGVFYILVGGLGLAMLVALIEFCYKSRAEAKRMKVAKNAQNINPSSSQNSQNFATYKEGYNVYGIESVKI
Sequence of Voltage-gated inwardly rectifying potassium channel KCNH2 (Q12809 whole entry): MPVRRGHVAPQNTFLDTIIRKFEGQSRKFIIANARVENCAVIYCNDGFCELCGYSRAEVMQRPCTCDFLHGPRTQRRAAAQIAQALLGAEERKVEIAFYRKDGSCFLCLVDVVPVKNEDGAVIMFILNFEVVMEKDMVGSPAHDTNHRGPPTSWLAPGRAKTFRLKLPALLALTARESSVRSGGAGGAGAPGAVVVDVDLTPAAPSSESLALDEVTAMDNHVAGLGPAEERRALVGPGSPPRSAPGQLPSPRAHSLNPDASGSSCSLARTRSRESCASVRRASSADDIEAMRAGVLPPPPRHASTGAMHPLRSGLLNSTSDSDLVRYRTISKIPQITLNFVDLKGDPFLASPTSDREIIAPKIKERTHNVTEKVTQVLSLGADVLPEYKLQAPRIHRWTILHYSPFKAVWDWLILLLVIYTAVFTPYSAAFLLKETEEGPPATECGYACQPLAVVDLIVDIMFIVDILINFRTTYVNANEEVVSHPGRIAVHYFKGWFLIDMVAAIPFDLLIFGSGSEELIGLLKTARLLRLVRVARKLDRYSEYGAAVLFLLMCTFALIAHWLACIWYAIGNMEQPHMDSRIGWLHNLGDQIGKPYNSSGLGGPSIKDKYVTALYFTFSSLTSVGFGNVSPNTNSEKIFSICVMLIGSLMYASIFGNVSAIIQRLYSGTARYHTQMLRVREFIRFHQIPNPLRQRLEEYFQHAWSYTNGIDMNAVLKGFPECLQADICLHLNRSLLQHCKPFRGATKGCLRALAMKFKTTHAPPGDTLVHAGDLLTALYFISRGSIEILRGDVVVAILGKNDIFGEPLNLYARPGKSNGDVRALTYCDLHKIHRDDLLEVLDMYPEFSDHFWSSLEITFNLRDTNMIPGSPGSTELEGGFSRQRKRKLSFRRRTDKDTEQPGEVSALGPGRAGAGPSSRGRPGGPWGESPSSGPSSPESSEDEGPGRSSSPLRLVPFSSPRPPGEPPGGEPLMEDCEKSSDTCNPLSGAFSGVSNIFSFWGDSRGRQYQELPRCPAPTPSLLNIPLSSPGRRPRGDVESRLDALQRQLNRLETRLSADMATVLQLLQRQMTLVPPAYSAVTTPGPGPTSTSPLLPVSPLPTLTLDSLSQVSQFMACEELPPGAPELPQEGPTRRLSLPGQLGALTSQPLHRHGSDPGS

For the molecule `CC(C)S(=O)(=O)N[C@H]1CN(C)CC1c1ccc(-c2ccc(F)nc2)cc1` (single isomer, unassigned), the EC50 (usually the concentration that produces a half-maximal response) in data set [1] is 5 µM. This molecule also came in with an Activity in data set [2] of 117%. The IC50 – broadly, the concentration that inhibits the measured activity by half – in data set [3] came to 1 µM. Besides, the CL in data set [4] came to 0.8 mL/min/g.

`CC(C)S(=O)(=O)N[C@H]1CN(c2ccccc2)CC1c1ccc(-c2ccc(F)nc2)cc1` (single isomer, unassigned) displayed an EC50 in data set [1] of 4 µM. Moreover, the Activity in data set [2] came out at 74%. This molecule also had an IC50 in data set [3] of 0.08 µM.

Take `CC(C)S(=O)(=O)N[C@H]1CN(C)CC1c1ccc(-c2cccs2)cc1` (single isomer, unassigned): in data set [1], a half-maximal effect (EC50) was put at 20 µM. Further, the Activity in data set [2] amounted to 29%. For the same molecule, in data set [3], the IC50 was above 63 µM.

On to `CC(C)S(=O)(=O)N[C@H]1CN(C)CC1c1ccc(-c2ccsc2)cc1` (single isomer, unassigned), for which the response in data set [1] was half-maximal at 3.2 µM (EC50). The same molecule gave an Activity in data set [2] of 106%. The molecule further returned an IC50 in data set [3] of 4 µM.

In the case of `CC(C)S(=O)(=O)N[C@@H]1COCC1c1ccc(-c2ccc(C#N)cc2)cc1` (single isomer, unassigned), in data set [1], the response was half-maximal at 0.5 µM (EC50). This molecule also came in with an Activity in data set [2] of 112%. In data set [3], this molecule yielded an IC50 of 12.6 µM.

`CC(=O)c1cccc(-c2ccc(C3COC[C@H]3NS(=O)(=O)C(C)C)cc2)c1` (single isomer, unassigned): it took 0.1 µM to reach a half-maximal effect in data set [1] (EC50). In data set [2], this molecule displayed an Activity of 124%.

In the case of `CC(C)S(=O)(=O)N[C@@H]1COCC1c1ccc(-c2ccc(F)nc2)cc1` (single isomer, unassigned), the EC50 in data set [1] was 0.3 µM. In data set [2], this molecule registered an Activity of 125%. In data set [3], this molecule registered an IC50 of 12.6 µM.

As for `CC(C)S(=O)(=O)N[C@@H]1COCC1c1ccc(-c2cncc(F)c2)cc1` (single isomer, unassigned), the response in data set [1] was half-maximal at 0.3 µM (EC50). The same molecule showed an Activity in data set [2] of 131%. This molecule showed an IC50 in data set [3] above 63 µM. In data set [4], this molecule registered a CL of 0.6 mL/min/g.

In data set [1], `CC(C)S(=O)(=O)N[C@@H]1COCC1c1ccc(-c2ccc(F)cn2)cc1` (single isomer, unassigned) returned an EC50 of 0.3 µM. For the same molecule, in data set [2], the Activity is 117%. Moreover, the IC50 in data set [3] was above 63 µM. The CL in data set [4] came to 0.8 mL/min/g.

For `CC(C)S(=O)(=O)N[C@@H]1COCC1c1ccc(-c2cccs2)cc1` (single isomer, unassigned), it took 0.3 µM to reach a half-maximal effect in data set [1] (EC50). Besides, the Activity in data set [2] was 117%. Also, the IC50 in data set [3] is above 63 µM.

Consider `CC(C)S(=O)(=O)N[C@@H]1COCC1c1ccc(-c2ccsc2)cc1` (single isomer, unassigned), for which the midpoint of the response in data set [1], the EC50, lay at 0.4 µM. For the same molecule, in data set [2], the Activity amounted to 120%.

Consider `CC(C)S(=O)(=O)N[C@H]1CN(C)CC1c1ccc(-c2cccc(NS(C)(=O)=O)c2)cc1` (single isomer, unassigned), for which, in data set [1], a half-maximal response (EC50) required 0.3 µM. The molecule also came in with an Activity in data set [2] of 124%. The same molecule came in with an IC50 in data set [3] of 31.6 µM. Further, the solubility (usually the dissolved amount per volume that the medium holds) in data set [5] was above 9000 µg/mL.

In the case of `CCN1CC(c2ccc(-c3cccc(NS(C)(=O)=O)c3)cc2)[C@@H](NS(=O)(=O)C(C)C)C1` (single isomer, unassigned), the EC50 in data set [1] came to 1.6 µM. Besides, the Activity in data set [2] stood at 111%. The same molecule displayed an IC50 in data set [3] of 2.5 µM. Moreover, the CL in data set [4] was determined as 0.7 mL/min/g.

`CC(C)N1CC(c2ccc(-c3cccc(NS(C)(=O)=O)c3)cc2)[C@@H](NS(=O)(=O)C(C)C)C1` (single isomer, unassigned) had an Activity in data set [2] of 89%. In addition, the CL in data set [4] is 0.7 mL/min/g.

`CC(C)S(=O)(=O)N[C@H]1CN(c2ccccc2)CC1c1ccc(-c2cccc(NS(C)(=O)=O)c2)cc1` (single isomer, unassigned) displayed an EC50 in data set [1] of 5 µM. The Activity in data set [2] was 38%.

With `CC(C)S(=O)(=O)N[C@H]1CN(C)CC1c1ccc(-c2ccc(C#N)cc2)cc1` (single isomer, unassigned), the half-life – broadly, the time in which the quantity being followed falls by half – in data set [6] is above 2 h. For the same molecule, in data set [7], the Kp (as a rule, the ratio of the level in a tissue or fluid to that in plasma or blood) came to 1.8. Also, it took 5 µM to reach a half-maximal effect in data set [1] (EC50). This molecule showed an Activity in data set [2] of 109%. The CL in data set [4] turned out to be 0.8 mL/min/g. Besides, the solubility in data set [5] is above 2700 µg/mL.

Consider `CCN1CC(c2ccc(-c3ccc(C#N)cc3)cc2)[C@@H](NS(=O)(=O)C(C)C)C1` (single isomer, unassigned), for which the response in data set [1] was half-maximal at 7.9 µM (EC50). The Activity in data set [2] was determined as 90%. The molecule also had a CL in data set [4] of 1.2 mL/min/g.

In data set [1], `CC(C)N1CC(c2ccc(-c3ccc(C#N)cc3)cc2)[C@@H](NS(=O)(=O)C(C)C)C1` (single isomer, unassigned) registered an EC50 of 20 µM. The Activity in data set [2] came out at 30%.

`CC(C)S(=O)(=O)N[C@H]1CN(c2ccccc2)CC1c1ccc(-c2ccc(C#N)cc2)cc1` (single isomer, unassigned): in data set [1], the EC50 was 6.2 µM. For the same molecule, the Activity in data set [2] is 48%. In data set [3], this molecule had an IC50 of 0.8 µM.

The molecule `CC(C)S(=O)(=O)N[C@H]1CN(C)CC1c1ccc(-c2cccc(S(C)(=O)=O)c2)cc1` (single isomer, unassigned) yielded an EC50 in data set [1] of 5 µM. The Activity in data set [2] was found to be 75%.

In turn, `CC(=O)Nc1cccc(-c2ccc(C3CN(C)C[C@@H]3NS(=O)(=O)C(C)C)cc2)c1` (single isomer, unassigned) came in with an EC50 in data set [1] of 4 µM. In data set [2], the Activity worked out at 79%. In addition, the IC50 in data set [3] was determined as 12.6 µM.

`CC(=O)c1cccc(-c2ccc(C3CN(C)C[C@@H]3NS(=O)(=O)C(C)C)cc2)c1` (single isomer, unassigned) displayed an EC50 in data set [1] of 6.3 µM. The Activity in data set [2] stood at 73%. The molecule further returned an IC50 in data set [3] of 7.9 µM.

As for `CC(C)S(=O)(=O)N[C@H]1CN(C)CC1c1ccc(-c2cccc(C(F)(F)F)c2)cc1` (single isomer, unassigned), the EC50 in data set [1] turned out to be 79.4 µM. Moreover, in data set [2], the Activity came to 26%.

Consider `CC(C)S(=O)(=O)N[C@H]1CN(C)CC1c1ccc(-c2ccccc2F)cc1` (single isomer, unassigned), for which the EC50 in data set [1] turned out to be 2.5 µM. In data set [2], this molecule had an Activity of 20%.

In the case of `CC(C)S(=O)(=O)N[C@H]1CN(C)CC1c1ccc(-c2cccnc2)cc1` (single isomer, unassigned), in data set [1], it took 4 µM to reach a half-maximal effect (EC50). Besides, the Activity in data set [2] was 100%. This molecule also showed an IC50 in data set [3] of 31.6 µM.

`CC(C)S(=O)(=O)N[C@H]1CN(C)CC1c1ccc(-c2cccnc2F)cc1` (single isomer, unassigned) displayed an EC50 in data set [1] of 2.5 µM. Besides, the Activity in data set [2] is 101%. The IC50 in data set [3] was 6.3 µM.
